# Source: patent US8309730B2, “Nonsteroidal compounds useful as modulators of glucocorticoid receptor AP-1 and/or NF-kappab acitivity and use thereof” (Bristol-Myers Squibb Company, priority 2007, dated 2012)
# Assays:
# [1] = target: T1, human glucocorticoid receptor (Homo sapiens, UniProt P04150); assay: Glucocorticoid Receptor Binding Assay (I), fluorescence polarization competitor kit; settings: purified human recombinant full-length GR, Fluormone GS Red, 2 h room temperature
# T1 construct: purified human recombinant full-length glucocorticoid receptor (2 nM); purchased Invitrogen Part #2893
# T1 sequence (P04150 1-777): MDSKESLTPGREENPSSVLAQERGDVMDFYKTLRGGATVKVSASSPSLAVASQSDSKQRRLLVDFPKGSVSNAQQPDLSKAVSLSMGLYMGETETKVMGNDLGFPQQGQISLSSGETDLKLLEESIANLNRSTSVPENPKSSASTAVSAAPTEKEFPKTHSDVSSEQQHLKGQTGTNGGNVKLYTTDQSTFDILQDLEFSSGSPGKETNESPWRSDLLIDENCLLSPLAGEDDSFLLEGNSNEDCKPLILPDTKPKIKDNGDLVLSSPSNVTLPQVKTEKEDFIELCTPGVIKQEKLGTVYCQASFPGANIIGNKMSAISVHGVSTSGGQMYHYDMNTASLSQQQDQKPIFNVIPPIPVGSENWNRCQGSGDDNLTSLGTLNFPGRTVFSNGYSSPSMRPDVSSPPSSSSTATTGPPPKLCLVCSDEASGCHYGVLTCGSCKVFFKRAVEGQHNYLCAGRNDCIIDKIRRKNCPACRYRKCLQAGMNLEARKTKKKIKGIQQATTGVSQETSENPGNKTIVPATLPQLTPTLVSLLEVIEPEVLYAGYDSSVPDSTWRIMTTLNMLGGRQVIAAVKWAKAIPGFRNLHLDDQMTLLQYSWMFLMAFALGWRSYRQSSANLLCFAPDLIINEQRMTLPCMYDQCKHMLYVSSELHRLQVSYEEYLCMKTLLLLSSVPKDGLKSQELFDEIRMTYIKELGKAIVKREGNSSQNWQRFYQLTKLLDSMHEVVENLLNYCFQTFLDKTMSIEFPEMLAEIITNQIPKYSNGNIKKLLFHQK
# Protocol: Briefly, purified human recombinant full-length glucocorticoid receptor (2 nM) was mixed with fluorescently labeled glucocorticoid (1 nM Fluormone GS Red) in the presence or absence of test compound. After two hours incubation at room temperature in the dark, the fluorescence polarization (FP) of the sample was measured. […] Test compounds were analyzed in the concentration range from 8.5E-05 μM to 5 μM.
# [2] = system: AP-1 induced transcriptional activity; assay: Cellular Transrepressional Assay (AP-1 luciferase reporter in A549 cells); assay type: cell-based; settings: Homo sapiens, A549 cells stably transfected with pAP-1-Luc, 10 ng/ml PMA, 7 hours; for Emax: maximum inhibition, read-out: AP-1 Max % inh (Cellular Transrepression Assay); for EC50: read-out: AP-1 EC50, nM (Cellular Transrepression Assay)
# Protocol: To measure the ability of test molecules to inhibit AP-1 induced transcriptional activity we utilized an A549 cell which was stably transfected with a plasmid containing 7×AP-1 DNA binding sites (pAP-1-Luc plasmid, Stratagene Co. La Jolla, Calif.) followed by the gene for luciferase. Cells were activated with 10 ng/ml of phorbol myristic acid (PMA) plus or minus test molecules for 7 hours. After 7 hours a luciferase reagent was added to measure luciferase enzymatic activity in the cell. After a 10 minute incubation of luciferase reagent with cells, luminescence was measured in a TopCount luminescence counter. Repression of AP-1 activity was calculated as the percentage decrease in the signal induced by PMA alone. Test molecules were analyzed in the concentration range from 0.1 nM to 40 μM. EC50 values were determined by using standard curve fitting methods such as Excel fit (Microsoft Co.).
SMILES,Ki [1],Emax [2],EC50 [2]
C[C@]12Cn3cnc(-c4ccccc4)c3C=C1CCC[C@@H]2[C@H](O)c1ccccc1 (racemic) [Example 12],86.3 nM,–,–
COc1ccc([C@H](O)[C@H]2CCCC3=Cc4c(-c5ccccc5)ncn4C[C@@]32C)cc1 (racemic) [Example 16],90.1 nM,–,–
COc1ccc([C@@H](O)[C@H]2CCCC3=Cc4c(-c5ccccc5)ncn4C[C@@]32C)cc1 (racemic) [Example 17],93.4 nM,–,–
C=CC[C@H](O)[C@H]1CCCC2=Cc3c(-c4ccccc4)ncn3C[C@@]21C (racemic) [Example 18],26.9 nM,–,–
C=CC[C@@H](O)[C@H]1CCCC2=Cc3c(-c4ccccc4)ncn3C[C@@]21C (racemic) [Example 19],22.3 nM,–,–
C[C@]12Cn3cnc(-c4ccccc4)c3C=C1CCC[C@@H]2[C@@H](O)Cc1ccccc1 (racemic) [Example 20],18.3 nM,–,–
C[C@]12Cn3cnc(-c4ccccc4)c3C=C1CCC[C@@H]2[C@@H](O)C1CCCCC1 (racemic) [Example 21],20.2 nM,–,–
COc1cccc([C@H](O)[C@H]2CCCC3=Cc4c(-c5ccccc5)ncn4C[C@@]32C)c1 (racemic) [Example 22],94.4 nM,–,–
COc1cccc([C@@H](O)[C@H]2CCCC3=Cc4c(-c5ccccc5)ncn4C[C@@]32C)c1 (racemic) [Example 23],57.5 nM,–,–
C[C@H](O)[C@H]1CCCC2=Cc3c(-c4ccccc4)ncn3C[C@@]21C (racemic) [Example 24],364 nM,–,–
C[C@@H](O)[C@H]1CCCC2=Cc3c(-c4ccccc4)ncn3C[C@@]21C (racemic) [Example 25],202 nM,–,–
C[C@]12Cn3cnc(-c4ccccc4)c3C=C1CCC[C@@H]2C(=O)c1ccccc1 (racemic) [Example 33],> 1150 nM,–,–
C[C@]12Cn3cnc(-c4ccccc4)c3C=C1CCC[C@@H]2C(=O)c1csc2ccccc12 (racemic) [Example 34],> 1150 nM,–,–
C[C@]12Cn3cnc(-c4ccccc4)c3C=C1CCC[C@@H]2[C@](C)(O)c1ccccc1 (racemic) [Example 35],6.4 nM,–,–
CC[C@@](O)(c1ccccc1)[C@H]1CCCC2=Cc3c(-c4ccccc4)ncn3C[C@@]21C (racemic) [Example 36],8.71 nM,–,–
CC[C@@](O)(c1csc2ccccc12)[C@H]1CCCC2=Cc3c(-c4ccccc4)ncn3C[C@@]21C (racemic) [Example 37],209 nM,–,–
C[C@]12Cn3cnc(-c4ccccc4)c3C=C1CCC[C@@H]2[C@](O)(c1csc2ccccc12)C(F)(F)F (racemic) [Example 38],111 nM,–,–
CC12Cn3cnc(-c4ccc(F)cc4)c3C=C1CCCC2(O)CCc1ccccc1 (racemic) [Example 102],19.7 nM,–,–
CC12Cn3cnc(-c4ccc(F)cc4)c3C=C1CCCC2(O)c1ccc(Cl)cc1 (racemic) [Example 103],216 nM,–,–
"C[C@]12Cn3cnc(-c4ccccc4)c3C=C1CCC[C@@H]2[C@@H](O)c1ccccc1 (single isomer, unassigned) [Example 13]",> 1150 nM,–,–
"C[C@]12Cn3cnc(-c4ccccc4)c3C=C1CCC[C@@H]2[C@@H](O)c1ccccc1 (single isomer, unassigned) [Example 14]",65 nM,–,–
"C[C@]12Cn3cnc(-c4ccccc4)c3C=C1CCC[C@@H]2[C@H](O)c1csc2ccccc12 (single isomer, unassigned) [Example 28]",493 nM,–,–
"C[C@]12Cn3cnc(-c4ccccc4)c3C=C1CCC[C@@H]2[C@@H](O)c1csc2ccccc12 (single isomer, unassigned) [Example 30]",22.5 nM,–,–
"C[C@]12Cn3cnc(-c4ccccc4)c3C=C1CCC[C@@H]2[C@](C)(O)c1csc2ccccc12 (single isomer, unassigned) [Example 32]",> 1150 nM,–,–

SMILES,Ki [1],Emax [2],EC50 [2]
"C[C@]12Cn3cnc(-c4ccc(F)cc4)c3C=C1CCC[C@@H]2C(=O)c1csc2ccccc12 (single isomer, unassigned) [Example 43]",> 1150 nM,–,–
"C[C@]12Cn3cnc(-c4ccc(F)cc4)c3C=C1CCC[C@@H]2C(=O)c1csc2ccccc12 (single isomer, unassigned) [Example 44]",> 1150 nM,–,–
"C[C@]12Cn3cnc(-c4ccc(F)cc4)c3C=C1CCC[C@@H]2[C@](C)(O)c1csc2ccccc12 (single isomer, unassigned) [Example 45]",73.2 nM,–,–
"C[C@]12Cn3cnc(-c4ccc(F)cc4)c3C=C1CCC[C@@H]2[C@](C)(O)c1csc2ccccc12 (single isomer, unassigned) [Example 46]",1.43 nM,–,–
"CO[C@](C)(c1cccs1)[C@H]1CCCC2=Cc3c(-c4ccc(F)cc4)ncn3C[C@@]21C [Example 2, (5aR,6S)-1-(4-Fluorophenyl)-6-((S)-1-methoxy-1-(thiophen-2-yl)ethyl)-5a-methyl-5,5a,6,7,8,9-hexahydroimidazo[1,5-b]isoquinoline]",69.8 nM,–,–
C[C@]12Cn3cnc(-c4ccc(F)cc4)c3C=C1CCC[C@@H]2[C@](C)(O)c1ccc(Cl)s1 [Example 62],–,61.2%,5.48 nM
CC(C)(C)C[C@@](C)(O)[C@H]1CCCC2=Cc3c(-c4ccc(F)cc4)ncn3C[C@@]21C [Example 63],–,47.5%,31.5 nM
Cc1ccc([C@@](C)(O)[C@H]2CCCC3=Cc4c(-c5ccc(F)cc5)ncn4C[C@@]32C)cc1 [Example 64],–,41.9%,4.26 nM
Cc1cccc([C@@](C)(O)[C@H]2CCCC3=Cc4c(-c5ccc(F)cc5)ncn4C[C@@]32C)c1 [Example 65],–,46.7%,9.75 nM
Cc1ccccc1[C@@](C)(O)[C@H]1CCCC2=Cc3c(-c4ccc(F)cc4)ncn3C[C@@]21C [Example 66],–,42.1%,4.6 nM
C[C@]12Cn3cnc(-c4ccc(F)cc4)c3C=C1CCC[C@@H]2[C@](C)(O)C1CCCCC1 [Example 67],–,44.3%,1.99 nM
CCCC[C@@](C)(O)[C@H]1CCCC2=Cc3c(-c4ccc(F)cc4)ncn3C[C@@]21C [Example 68],–,40.8%,33.9 nM
C[C@]12Cn3cnc(-c4ccc(F)cc4)c3C=C1CCC[C@@H]2[C@](C)(O)c1ccccc1 [Example 71],–,32.5%,3.02 nM
Cc1ccc([C@@](C)(O)[C@H]2CCCC3=Cc4c(-c5ccc(F)cc5)ncn4C[C@@]32C)cc1F [Example 74],–,34.5%,14.3 nM
CCc1ccccc1[C@@](C)(O)[C@H]1CCCC2=Cc3c(-c4ccc(F)cc4)ncn3C[C@@]21C [Example 75],–,47.1%,41.6 nM
C[C@]12Cn3cnc(-c4ccc(F)cc4)c3C=C1CCC[C@@H]2[C@](C)(O)c1cccc(C#N)c1 [Example 83],–,35.6%,19.2 nM
CSc1cccc([C@@](C)(O)[C@H]2CCCC3=Cc4c(-c5ccc(F)cc5)ncn4C[C@@]32C)c1 [Example 89],–,45.3%,20.8 nM
COC(=O)c1ccc([C@@](C)(O)[C@H]2CCCC3=Cc4c(-c5ccc(F)cc5)ncn4C[C@@]32C)s1 [Example 92],–,47.4%,24.7 nM
C[C@]12Cn3cnc(-c4ccc(F)cc4)c3C=C1CCC[C@@H]2[C@](C)(O)C1CCOCC1 [Example 96],–,42%,56.5 nM
COc1cccc([C@@](C)(O)[C@H]2CCCC3=Cc4c(-c5ccc(F)cc5)ncn4C[C@@]32C)c1 [Example 97],–,39.6%,95 nM
C[C@]12Cn3cnc(-c4ccc(F)cc4)c3C=C1CCC[C@@H]2[C@](C)(O)c1ccc(C(=O)O)s1 [Example 99],–,43.9%,472 nM
CNC(=O)c1ccc([C@@](C)(O)[C@H]2CCCC3=Cc4c(-c5ccc(F)cc5)ncn4C[C@@]32C)s1 [Example 100],–,30.7%,573 nM
"CC1(C)COC2(CCCC3=Cc4c(-c5ccc(F)cc5)ncn4CC32C)OC1 (centres unmarked) [Example 104, 1′-(4-Fluorophenyl)-5,5,5a′-trimethyl-5a′,7′,8′,9′-tetrahydro-5′H-spiro[[1,3]dioxane-2,6′-imidazo[1,5-b]isoquinoline]]",–,32.4%,877 nM
